According to patent US20230263817A1, “HIGH DOSE NICOTINAMIDE ADENINE DINUCLEOTIDE (NAD) PRECURSOR REGIMENS FOR REDUCTION OF INFLAMMATION IN HUMAN PATIENTS WITH PREEXISTING INFLAMMATION” (University of Washington, priority 2021, published 2023):
Entries after “also recorded” stand apart in the source; their conditions may differ.

Columns and labels:
Type in all cases: in vivo, human
[1] = Randomized trial of NR in HFrEF: whole blood NR and NAD+ levels
Experimental: (§1) At Week 0 (Randomization), participants underwent history, repeat 6MWD assessment and baseline transthoracic echocardiogram (FIG. 15). NR or matching placebo were started at the initial dose of 250 mg orally twice daily, then up-titrated by 250 mg twice daily each week to a final dose of 1000 mg twice daily by Week 3. Participants were continued on the 1000 mg twice daily dose until the final clinic visit on Week 12. Blood draws for study labs, including levels of NR and NAD were obtained at Weeks 0, 2, 4 and 12. Medications were dispensed at Weeks 0, 2, 4 and 8, with pill counts performed at Weeks 2, 4, 8 and 12. A telephone visit was performed at Week 6. The final echocardiogram and PBMC mitochondrial respiration assays were performed at Week 12. Study labs were performed by the UW Research Testing Service, except for NR and NAD+ assays, which were performed by the Pharmacokinetics Laboratory, Department of Pharmaceutics, UW School of Pharmacy. Procedures for blood collection and processing, as well as NR and NAD+ assay procedures, have been described previously (Airhart S E, et al., PLoS One. 2017, 12:e0186459).

[2] = Randomized placebo-controlled 12-week trial of NR in clinically-stable HFrEF: safety and tolerability
Excerpt: The remaining 30 participants met all the prespecified inclusion criteria of: 1) Systolic HF (LVEF<40%, as determined by transthoracic echocardiogram) of non-ischemic or ischemic etiologies, 2) clinically stable (no cardiac procedures or hospitalizations for cardiac causes, including HF, ischemia or arrhythmia) within the prior 3 months, 3) ability to perform Study procedures (including study visits, blood draws and 6MWT), 4) willingness/ability to provide informed consent. None had any of the following exclusion criteria: 1) Heart failure with preserved ejection fraction (LVEF>40%), 2) HF etiologies other than non-ischemic or ischemic, 3) cardiac procedures, including, cardiac surgery, PCI, or cardiac device implantation, within the previous 3 months, 4) hospitalizations for cardiovascular causes, including HF, chest pain, stroke/TIA or arrhythmias within the prior 3 months, 5) inability to perform Study visits or procedures (e.g., physical inability to perform 6MWT), 6) unwillingness or inability to provide informed consent, 7) Alanine transaminase (ALT)>×3 upper limit of normal, hepatic insufficiency or active liver disease, 8) recent history of acute gout, 9) chronic renal insufficiency with serum creatinine ≥2.5 mg/dl, 10) pregnant or likely to become pregnant, 11) significant co-morbidity likely to cause death within 6 months, 12) significant history of active substance abuse within the previous 5 years, 13) current participation in a clinical trial of a study drug or intervention, and 14) prior intolerance to NR precursors, including niacin or nicotinamide. Follow-up was completed on all 30 participants. Study medication was discontinued in one participant due to gastrointestinal intolerance, but they completed all follow-up visits and procedures. The final participant refused to complete any study visits or procedures after the Week 0 (Randomization Visit), but their vital status was confirmed at the end of the Study. No participants were excluded from analysis, which followed the principal of intention-to-treat. The standardized method for characterizing adverse events employed in the UW Clinical Trials Unit is the Common Terminology Criteria for Adverse Events v3.0 (CTCAE). There were 18 protocol deviations.
Study Design: The overall Study Design is depicted graphically in FIG. 15. Participant clinic visits, medication dispensing and data collection were performed on the Translational Research Unit (TRU) at the University of Washington (UW). […] History included assessment with the Minnesota Living with Heart Failure Questionnaire (MLHFQ), under license from the University of Minnesota (Minneapolis, Minn.).
Participants were randomized to NR or placebo at a 2:1 allocation ratio by the University of Washington Investigational Drug Service, which assigned Study IDs and dispensed study medications.
as §1

[3] = Randomized trial of NR in HFrEF: exploratory endpoints (6MWD, MLHFQ, echocardiography); conditions: Week 12 vs baseline; study not powered
Experimental: Peripheral Blood Mononuclear Cell (PBMC) Mitochondrial Function. PBMCs were isolated from freshly-collected whole blood by centrifugation in Sepmate™-50 PBMC isolation tubes (STEMCELL Technologies, Vancouver, BC, Canada; Cat. 85450). Isolated PBMCs were resuspended in Seahorse XF® medium (Agilent, Cat. 102353-100) and then plated (10^6 cells/well) onto Seahorse® (Agilent) 24-well plates. PBMC mitochondrial respiratory function was assessed by measuring the oxygen consumption rate (OCR) at baseline and maximal stimulated conditions as described in Zhou B, et al. (J Clin Invest. 2020, 130:6054-6063 (Experimental Example 1)). Exploratory Endpoints. The following endpoints were considered exploratory, as the Study was underpowered to detect differences.
Six minute walk distance (6MWD). Any potential “training” effect (Laboratories ATSCoPSfCPF. ATS statement: guidelines for the six-minute walk test. Am J Respir Crit Care Med. 2002, 166:111-7) for 6MWD results was mitigated by performing a “training” test at the Screening Visit, while the second test, performed at the Randomization Visit was considered the Baseline test.
Echocardiography. Serial echocardiograms were performed using a standardized data collection protocol determined using the TOMTEC Arena Image-Com (TOMTEC Imaging Systems, Unterschleissheim, Germany). All echocardiograms were interpreted by a single observer, blinded to participant clinical data, randomized treatment assignment and echocardiogram temporal sequence. For evaluation of left ventricular systolic function by 2-dimensional (2-D), transthoracic echocardiography, 28 study pairs (NR=18, placebo=10) had evaluable data. For evaluation of left ventricular diastolic function by […] (E/e′), 24 study pairs (NR=17, placebo=7) had evaluable data.
Minnesota Living with Heart Failure Questionnaire (MLHFQ). The MLHFQ was administered to Study participants at the Screening and Randomization visits, as well as at Study visits at Weeks 2, 3, 4, 8 and 12.

Compound: NC(=O)c1ccc[n+]([C@@H]2O[C@H](CO)[C@@H](O)[C@H]2O)c1 [NR, nicotinamide riboside]
- changes in whole blood NAD+ levels on-trial (Week 12-Week 0), Mean+SE ([1]; NR group): 30 ± 20 µM
- blood NAD+ levels during the up-titration period ([1]; NR group, Week 0 to Week 4, maintained through Week 12): dose-dependent increase
- whole blood NAD+ levels at 4 h post-dose vs pre-NR dose ([1]; Week 4 visit, 1000 mg NR dose): unchanged
- whole blood NR levels 4 h post-dose vs pre-dose ([1]; Week 4 visit, 1000 mg NR dose): tended to increase; also recorded: rose significantly
- whole blood NAD+ levels ([1]; clinically-stable HF patients, NR treatment): doubled
- concentration at 12 weeks ([1]; human, whole blood, oral, 1000 mg twice daily, NR group, read-out: on-trial changes in whole blood NR levels (Week 12-Week 0), Mean±SE): 2 nM
- blood NR level before the daily dose was administered ([1]; trough, throughout the study): low and variable
- total AEs reported on-trial ([2]; 20-participant NR group): 63
- treatment-emergent laboratory abnormalities, NR vs placebo ([2]; HFrEF, 12 weeks): no significant differences
- treatment-emergent adverse events (AEs), NR vs placebo ([2]; HFrEF, up to 1000 mg twice daily, 12 weeks): no between-group differences
- safety and tolerability ([2]; dose up to 1000 mg twice daily, total treatment duration of 12 weeks): well-tolerated
- out-of-range lab values ([2]; patients randomized to NR): creatinine greater than 1.5× but less than 3× baseline on 2 occasions in 1 patient
- percentages of dispensed capsules taken (range) ([2]; returned pill counts, NR group): 97 (91-100) %
- functional capacity, 6-minute walk test distance, NR vs placebo [3]: No on-trial differences between groups
- left ventricular diastolic function (E/e′), NR vs placebo [3]: No on-trial differences between groups
- left ventricular systolic function, 2D-LVEF, NR vs placebo [3]: No on-trial differences between groups
- quality of life, MLHFQ score, NR vs placebo [3]: No on-trial differences between groups
